Our source for the IC50 and inhibition values is ChEMBL document CHEMBL2321748, “Structure-Based Approach for the Discovery of Pyrrolo[3,2-d]pyrimidine-Based EGFR T790M/L858R Mutant Inhibitors” (ACS Med Chem Lett, 2013).

pIC50: −log10 of the molar value. The source made the active and inactive calls. The rule behind the calls is not given here.

Test [1] deals with Epidermal growth factor receptor (Homo sapiens, UniProt P00533). As to the kind of experiment: Inhibition of human wild type EGFR expressed in Sf9 cells using [gamma32P]-ATP after 10 mins by scintillation counting.
Test [2] concerns Epidermal growth factor receptor (Homo sapiens), P00533 [L858R,T790M]. As to the kind of experiment: Time dependent inhibition of human EGFR T790M/L858R mutant expressed in Sf9 cells using [gamma32P]-ATP up to 1 hr by scintillation counting.

The term pIC50 denotes the negative decadic logarithm of the IC50, by convention in mol/L. Lower therefore signals a high IC50.

Chain of Epidermal growth factor receptor (P00533 whole entry): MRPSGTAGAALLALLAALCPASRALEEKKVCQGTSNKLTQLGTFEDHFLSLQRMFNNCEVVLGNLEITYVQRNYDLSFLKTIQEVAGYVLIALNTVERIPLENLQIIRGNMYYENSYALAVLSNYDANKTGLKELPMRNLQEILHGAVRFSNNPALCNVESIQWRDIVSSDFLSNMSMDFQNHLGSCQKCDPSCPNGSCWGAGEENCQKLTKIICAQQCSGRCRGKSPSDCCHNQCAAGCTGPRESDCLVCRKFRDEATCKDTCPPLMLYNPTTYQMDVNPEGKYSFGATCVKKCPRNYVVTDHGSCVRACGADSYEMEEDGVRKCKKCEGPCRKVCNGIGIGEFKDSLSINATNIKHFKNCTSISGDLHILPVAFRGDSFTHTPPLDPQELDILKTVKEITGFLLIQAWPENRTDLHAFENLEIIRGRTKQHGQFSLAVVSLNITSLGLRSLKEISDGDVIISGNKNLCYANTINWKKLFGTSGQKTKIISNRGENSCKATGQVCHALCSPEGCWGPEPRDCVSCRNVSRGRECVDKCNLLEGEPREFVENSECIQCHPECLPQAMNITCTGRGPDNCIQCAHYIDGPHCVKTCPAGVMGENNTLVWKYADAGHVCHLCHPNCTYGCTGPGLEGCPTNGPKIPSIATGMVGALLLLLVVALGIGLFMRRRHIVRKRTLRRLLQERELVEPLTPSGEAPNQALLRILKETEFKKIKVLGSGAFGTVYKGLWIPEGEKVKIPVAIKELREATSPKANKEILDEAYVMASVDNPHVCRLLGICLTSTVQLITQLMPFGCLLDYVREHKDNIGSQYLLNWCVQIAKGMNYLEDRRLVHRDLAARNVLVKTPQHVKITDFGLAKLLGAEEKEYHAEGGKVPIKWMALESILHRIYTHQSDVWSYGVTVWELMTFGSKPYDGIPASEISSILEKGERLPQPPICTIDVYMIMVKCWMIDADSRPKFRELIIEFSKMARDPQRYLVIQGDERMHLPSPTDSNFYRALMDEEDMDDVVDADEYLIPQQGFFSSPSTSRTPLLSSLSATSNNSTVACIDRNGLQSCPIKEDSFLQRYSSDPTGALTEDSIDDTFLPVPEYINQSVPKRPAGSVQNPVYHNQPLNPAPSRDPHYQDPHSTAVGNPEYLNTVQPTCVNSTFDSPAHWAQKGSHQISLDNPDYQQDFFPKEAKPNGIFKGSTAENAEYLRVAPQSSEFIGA
Chain of Epidermal growth factor receptor (Homo sapiens), P00533 [L858R,T790M] (P00533 whole entry T790M/L858R, looked up): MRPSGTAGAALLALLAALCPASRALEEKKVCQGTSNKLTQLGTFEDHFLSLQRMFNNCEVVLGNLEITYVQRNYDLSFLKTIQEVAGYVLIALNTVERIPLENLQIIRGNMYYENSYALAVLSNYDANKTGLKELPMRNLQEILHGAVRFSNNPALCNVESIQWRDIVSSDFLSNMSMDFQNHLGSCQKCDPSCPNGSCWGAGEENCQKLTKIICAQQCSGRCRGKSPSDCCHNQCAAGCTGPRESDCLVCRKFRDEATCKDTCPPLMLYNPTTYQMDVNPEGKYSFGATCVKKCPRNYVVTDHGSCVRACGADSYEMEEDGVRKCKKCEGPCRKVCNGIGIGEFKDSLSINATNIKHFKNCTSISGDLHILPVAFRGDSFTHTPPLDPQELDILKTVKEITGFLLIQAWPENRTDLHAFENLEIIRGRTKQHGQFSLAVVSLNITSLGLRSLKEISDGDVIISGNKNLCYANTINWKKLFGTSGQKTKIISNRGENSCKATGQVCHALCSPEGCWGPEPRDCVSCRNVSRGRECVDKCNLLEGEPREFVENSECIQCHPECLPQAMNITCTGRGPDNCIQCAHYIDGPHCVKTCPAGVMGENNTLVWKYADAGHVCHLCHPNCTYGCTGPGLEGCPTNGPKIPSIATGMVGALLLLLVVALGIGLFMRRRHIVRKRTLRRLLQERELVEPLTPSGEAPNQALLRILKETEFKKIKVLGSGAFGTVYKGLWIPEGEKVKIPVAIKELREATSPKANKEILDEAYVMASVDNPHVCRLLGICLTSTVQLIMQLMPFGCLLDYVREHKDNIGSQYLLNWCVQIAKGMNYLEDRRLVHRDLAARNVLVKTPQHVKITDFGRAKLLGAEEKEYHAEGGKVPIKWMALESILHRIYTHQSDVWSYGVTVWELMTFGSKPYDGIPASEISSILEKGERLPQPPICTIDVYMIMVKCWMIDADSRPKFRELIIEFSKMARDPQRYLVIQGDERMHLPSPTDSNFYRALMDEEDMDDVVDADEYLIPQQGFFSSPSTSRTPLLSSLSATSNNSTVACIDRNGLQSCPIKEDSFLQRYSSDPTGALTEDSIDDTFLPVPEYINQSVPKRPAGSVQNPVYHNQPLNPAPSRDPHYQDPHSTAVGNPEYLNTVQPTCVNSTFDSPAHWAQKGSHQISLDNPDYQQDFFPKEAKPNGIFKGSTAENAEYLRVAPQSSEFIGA

`O=C(Nc1cccc(Oc2ccc(Nc3ncnc4ccn(CCOCCO)c34)cc2Cl)c1)NC1CCCCC1` had a negative logarithm of the IC50 (pIC50) in test [1] of 8.16.

Take `CN(C)C/C=C/C(=O)NCCn1ccc2ncnc(Nc3ccc(Oc4cccc(C(F)(F)F)c4)c(Cl)c3)c21`: the negative logarithm of the IC50 (pIC50) in test [1] was 8.34. For the same compound, the inhibition entry in test [2] was “inactive”.
